Assay results: PMC4761938 (2016)

Tests used:
Assay in all cases: graphene oxide fluorescence desorption assay
[1] = test system: OA-01 (DNA, aptamer) CAGCTCAGAAGCTTGATCCTGCACACGAGTTACGCCCCATCGTTGTCCTTTCCCTCACGTGACTCGAAGTCGTGCATCTG; settings: 150 mM Na+, 2 mM Mg2+; binding buffer 50 mM Tris, pH 7.4; 1 μM OA, 5–200 nM aptamer
[2] = test system: OA27-1 (DNA, aptamer) ATTTGACCATGTCGAGGGAGACGCGCAGTCGCTACCACCT; settings: 150 mM Na+, 2 mM Mg2+; binding buffer 50 mM Tris, pH 7.4; FAM-aptamer, GO separation
[3] = test system: OA-14 (DNA, aptamer) CAGCTCAGAAGCTTGATCCTATGCTTCGTGGGACAAGAGTTGACACATCGTCGTTAGGTTGACTCGAAGTCGTGCATCTG; settings: 150 mM Na+, 2 mM Mg2+; binding buffer 50 mM Tris, pH 7.4; 1 μM OA, 5–200 nM aptamer
[4] = test system: OA-09 (DNA, aptamer) CAGCTCAGAAGCTTGATCCTTAGCACACAACCCTTTGATTGGGATATCTCATCCCTCGGACTCGAAGTCGTGCATCTG; settings: 150 mM Na+, 2 mM Mg2+; binding buffer 50 mM Tris, pH 7.4; 1 μM OA, 5–200 nM aptamer
[5] = test system: OA-17 (DNA, aptamer) CAGCTCAGAAGCTTGATCCTTTCCCCAAACTGTTGCAACCTCTGCTTTCTTTCGCTATATGACTCGAAGTCGTGCATCTG; settings: 150 mM Na+, 2 mM Mg2+, binding buffer 50 mM Tris, pH 7.4; for binding: 1 μM compound tested, 150 nM aptamer
[6] = test system: OA-08 (DNA, aptamer) CAGCTCAGAAGCTTGATCCTAGCCCGCCAACCTACATCATCTACACTTCGTTTTAACCTTGACTCGAAGTCGTGCATCTG; settings: 150 mM Na+, 2 mM Mg2+, binding buffer 50 mM Tris, pH 7.4; for binding: 1 μM compound tested, 150 nM aptamer
[7] = test system: OA-21 (DNA, aptamer) CAGCTCAGAAGCTTGATCCTGGATGACCGTTGCAAGCGATCCATTGTTGTTTGATCATGTGACTCGAAGTCGTGCATCTG; settings: 150 mM Na+, 2 mM Mg2+; binding buffer 50 mM Tris, pH 7.4; 1 μM OA, 5–200 nM aptamer
[8] = test system: OA-27 (DNA, aptamer) CAGCTCAGAAGCTTGATCCTATTTGACCATGTCGAGGGAGACGCGCAGTCGCTACCACCTGACTCGAAGTCGTGCATCTG; settings: 150 mM Na+, 2 mM Mg2+, binding buffer 50 mM Tris, pH 7.4; for binding: 1 μM compound tested, 150 nM aptamer
[9] = test system: OA-22 (DNA, aptamer) CAGCTCAGAAGCTTGATCCTGGCCCCGATATGATTGCTATCATTCGCATCTGCTTCACTTGACTCGAAGTCGTGCATCTG; settings: 150 mM Na+, 2 mM Mg2+; binding buffer 50 mM Tris, pH 7.4; 1 μM OA, 5–200 nM aptamer

`C=C1[C@@H](O)[C@@H]2O[C@]3(CC[C@H](/C=C/[C@@H](C)[C@@H]4CC(C)=C[C@@]5(O[C@H](C[C@@](C)(O)C(=O)O)CC[C@H]5O)O4)O3)CC[C@H]2O[C@@H]1[C@@H](O)C[C@H](C)[C@H]1O[C@@]2(CCCCO2)CC[C@H]1C` gave a Kd [1] of 125 ± 22 nM, a Kd [2] of 40 nM and a Kd [3] of 1772 ± 543 nM. The Kd [4] was 127 ± 39 nM, the Kd ([5]; 1 μM OA, 5–200 nM aptamer) was 79 ± 20 nM and the Kd ([6]; 1 μM OA, 5–200 nM aptamer) was 88 ± 30 nM. The Kd [7] was 118 ± 18 nM, the Kd ([8]; 1 μM OA, 5–200 nM aptamer) was 42 ± 4 nM and the Kd [9] was 70 ± 16 nM.

For `C/C(=C/C=C/[C@@H](C)C(=O)O)[C@H]1CN[C@H](C(=O)O)[C@H]1CC(=O)O`, the binding [8] was “no”.

`C=C1[C@@H](O)[C@@H]2O[C@]3(CC[C@H](/C=C/[C@@H](C)[C@@H]4CC(C)=C[C@@]5(O[C@H](C[C@@](C)(O)C(=O)O)CC[C@H]5O)O4)O3)CC[C@H]2O[C@@H]1[C@@H](O)C[C@H](C)[C@@H]1CCC[C@@]2(OCCC[C@H]2C)O1` was tested, and the binding [5] was “yes”, the binding [6] was “yes” and the binding [8] was “no”.

In the case of `C=C1[C@@H](O)[C@@H]2O[C@]3(CC[C@H](/C=C/[C@@H](C)[C@@H]4CC(C)=C[C@@]5(O[C@H](C[C@@](C)(O)C(=O)O)CC[C@H]5O)O4)O3)CC[C@H]2O[C@@H]1[C@@H](O)C[C@H](C)[C@H]1O[C@@]2(CC[C@H]1C)OCCC[C@H]2C`, the binding [5] is reported as “yes”, the binding [6] is reported as “yes” and the binding [8] is reported as “no”.
